Source: US20260015344A1, “PAN-KRAS INHIBITORS” (Mirati Therapeutics, Inc., priority 2022, published 2026)

What was measured:
[1] = molecular target: T1, KRas^G13D (Homo sapiens, UniProt P01116, G13D); assay: KRas Binding Assay (TR-FRET displacement), KRas G13D; settings: TR-FRET tracer displacement
T1 construct: corresponding to amino acids 1-169, produced at Accelegan Inc; biotin (biotinylated); purchased Accelegan Inc
Description: (§1) This Example illustrates that exemplary compounds of the present invention bind to KRas and are capable of displacing a labeled tracer ligand occupying the KRas binding site. KRas^WT, KRas^G12A, KRas^G12C, KRas^G12D, KRas^G12R, KRas^G12S, KRas^G12V, KRas^G13D, or KRas^Q61H was used in the assay.
(§2) The ability of a compound to bind to KRas was measured using a TR-FRET displacement assay. Biotinylated KRas (corresponding to amino acids 1-169, produced at Accelegan Inc.) was incubated with custom made Cy5 labelled tracer, terbium streptavidin (Cisbio Inc.) and compound (1% DMSO final) in buffer (50 mM HEPES, pH 7.5, 5 mM MgCl2, 0.005% Tween-20 and 1 mM DTT). After a 60-minute incubation at room temperature, the reaction was measured using a BMG LABTECH CLARIO star Plus via TR-FRET. […] The POC values were fit to a 4-parameter IC50 equation and the IC50 value reported.

[2] = molecular target: T2, KRas^WT (Homo sapiens, UniProt P01116); assay: KRas Binding Assay (TR-FRET displacement), KRas WT; settings: TR-FRET tracer displacement
T2 construct: corresponding to amino acids 1-169, produced at Accelegan Inc; biotin (biotinylated); purchased Accelegan Inc
Description: as §1, §2

[3] = molecular target: T3, KRas^G12D (Homo sapiens, UniProt P01116, G12D); assay: KRas Binding Assay (TR-FRET displacement), KRas G12D; settings: TR-FRET tracer displacement
T3 construct: corresponding to amino acids 1-169, produced at Accelegan Inc; biotin (biotinylated); purchased Accelegan Inc
Description: as §1, §2

[4] = molecular target: T4, KRas^G12V (Homo sapiens, UniProt P01116, G12V); assay: KRas Binding Assay (TR-FRET displacement), KRas G12V; settings: TR-FRET tracer displacement
T4 construct: corresponding to amino acids 1-169, produced at Accelegan Inc; biotin (biotinylated); purchased Accelegan Inc
Description: as §1, §2

[5] = molecular target: T5, KRas^G12R (Homo sapiens, UniProt P01116, G12R); assay: KRas Binding Assay (TR-FRET displacement), KRas G12R; settings: TR-FRET tracer displacement
T5 construct: corresponding to amino acids 1-169, produced at Accelegan Inc; biotin (biotinylated); purchased Accelegan Inc
Description: as §1, §2

[6] = molecular target: T6, KRas^G12C (Homo sapiens, UniProt P01116, G12C); assay: KRas Binding Assay (TR-FRET displacement), KRas G12C; settings: TR-FRET tracer displacement
T6 construct: corresponding to amino acids 1-169, produced at Accelegan Inc; biotin (biotinylated); purchased Accelegan Inc
Description: as §1, §2

[7] = molecular target: T7, KRas^G12S (Homo sapiens, UniProt P01116, G12S); assay: KRas Binding Assay (TR-FRET displacement), KRas G12S; settings: TR-FRET tracer displacement
T7 construct: corresponding to amino acids 1-169, produced at Accelegan Inc; biotin (biotinylated); purchased Accelegan Inc
Description: as §1, §2

[8] = molecular target: T8, KRas^G12A (Homo sapiens, UniProt P01116, G12A); assay: KRas Binding Assay (TR-FRET displacement), KRas G12A; settings: TR-FRET tracer displacement
T8 construct: corresponding to amino acids 1-169, produced at Accelegan Inc; biotin (biotinylated); purchased Accelegan Inc
Description: as §1, §2

[9] = molecular target: T9, KRas^Q61H (Homo sapiens, UniProt P01116, Q61H); assay: KRas Binding Assay (TR-FRET displacement), KRas Q61H; settings: TR-FRET tracer displacement
T9 construct: corresponding to amino acids 1-169, produced at Accelegan Inc; biotin (biotinylated); purchased Accelegan Inc
Description: as §1, §2

[10] = tested on: KRas-mediated Phosphorylation of ERK in AsPC-1 cells; assay: HTRF pERK assay, AsPC-1 cells; assay type: cell-based; settings: Homo sapiens, ASPC1, 3 hrs compound incubation, read-out: Inhibition (HTRF IC50 nM) of KRas-mediated Phosphorylation of ERK, AsPC-1
Description: (§3) • Day 1: Seed 6,000 cells/well-25 μl/well in 384-well white solid bottom plate; RPM1_10% FBS.
(§4) • 1. To harvest cells from flask using 0.05% Trypsin/EDTA solution. Add 10 mL of media to stop trypsinizing. Pipette the cells into a conical bottom 50 mL centrifuge tube and centrifuge 5 min×1000 rpm. • 2. Re-suspend the cell pellet in media, take a cell count, and then adjust the cell density using fresh media. • 3. Seed 6,000 cells into cell culture plate with 50 μL media. The • 4. Incubate cell plate overnight in a 37° C., 5% CO2 incubator.
(§5) • 1. Use Tecan to complete the compound addition. Compounds start from 10 uM top, 3-fold dilution, and 10 doses. The final DMSO concentration is 0.8%. Dispensed 0.2 uM Trametinib as Min control. • 2. Incubate cell plate for 3 hrs in the incubator. Detection with Cisbio pERK HTRF Kit • 1. Dilute 1 volume of 4× lysis buffer with 3 volumes of deionized water. Then, add 100× the blocking reagent. Keep lysis buffer on the ice. • 2. At the end of the compound treatment, flick-off the media. • 3. Add 35 μL of lysis buffer per well using a Multidrop Combi. Then place on a plate agitator shaking at 300 rpm at 4° C. for 40 mins. • 4. Make up the HTRF antibody buffer. For each assay plate, mix 50 μL of d2-conjugate antibody with 950 μL of detection buffer. Similarly, mix 50 μL of Cryptate antibody with 950 μL of detection buffer. Then mix the two diluted antibodies together. • 5. Dispense 3.4 μL the antibody buffer to wells of an empty assay plate. Seal the plate and centrifuge plate 30 sec×1000 rpm. • 6. At the end of the 4° C. lysis, centrifuge the lysate plates 3 mins×1500 rpm. • 7. Use the Bravo to transfer 13.6 μL of lysate from cell culture plate to assay plate. Then incubate assay plate for 2 hrs at room temperature. • 8. At the end of incubation, read plate on the Envision after centrifuging plate 30 sec×1000 rpm.

[11] = tested on: KRas-mediated Phosphorylation of ERK in H727 cells; assay: HTRF pERK assay, H727 cells; assay type: cell-based; settings: Homo sapiens, NCI-H727, 3 hrs compound incubation, read-out: Inhibition (HTRF IC50 nM) of KRas-mediated Phosphorylation of ERK, H727
Description: as §3, §4, §5

T3 sequence (P01116 1-169 isoform P01116-2 G12D): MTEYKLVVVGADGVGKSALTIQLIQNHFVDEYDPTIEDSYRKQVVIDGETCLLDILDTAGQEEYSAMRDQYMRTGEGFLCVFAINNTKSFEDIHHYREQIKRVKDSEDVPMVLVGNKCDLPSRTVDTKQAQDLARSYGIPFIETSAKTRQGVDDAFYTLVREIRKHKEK
T5 sequence (P01116 1-169 isoform P01116-2 G12R): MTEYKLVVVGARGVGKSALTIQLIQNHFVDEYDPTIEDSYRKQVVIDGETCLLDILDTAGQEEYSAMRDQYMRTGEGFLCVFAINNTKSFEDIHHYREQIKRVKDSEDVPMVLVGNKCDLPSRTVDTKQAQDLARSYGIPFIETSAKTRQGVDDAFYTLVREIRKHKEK
T6 sequence (P01116 1-169 isoform P01116-2 G12C): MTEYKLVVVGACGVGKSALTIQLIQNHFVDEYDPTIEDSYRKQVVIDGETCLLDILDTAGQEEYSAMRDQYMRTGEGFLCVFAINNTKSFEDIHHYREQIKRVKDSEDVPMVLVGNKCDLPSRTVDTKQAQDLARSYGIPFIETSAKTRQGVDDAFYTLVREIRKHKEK
T9 sequence (P01116 1-169 isoform P01116-2 Q61H): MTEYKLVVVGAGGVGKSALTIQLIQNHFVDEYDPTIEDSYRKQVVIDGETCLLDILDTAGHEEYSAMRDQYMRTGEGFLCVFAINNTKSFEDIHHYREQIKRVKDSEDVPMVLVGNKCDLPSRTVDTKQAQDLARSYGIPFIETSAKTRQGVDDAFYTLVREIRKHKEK
T8 sequence (P01116 1-169 isoform P01116-2 G12A): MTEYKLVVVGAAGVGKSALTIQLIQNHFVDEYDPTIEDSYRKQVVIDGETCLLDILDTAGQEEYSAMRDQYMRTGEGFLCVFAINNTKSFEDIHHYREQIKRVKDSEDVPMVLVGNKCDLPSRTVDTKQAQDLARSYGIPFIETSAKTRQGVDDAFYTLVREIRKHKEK
T2 sequence (P01116 1-169 isoform P01116-2): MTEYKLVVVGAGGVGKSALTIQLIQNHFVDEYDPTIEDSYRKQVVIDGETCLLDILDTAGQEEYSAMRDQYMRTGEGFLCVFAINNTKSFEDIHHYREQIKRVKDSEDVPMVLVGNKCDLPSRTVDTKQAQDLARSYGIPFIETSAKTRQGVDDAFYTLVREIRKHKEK
T4 sequence (P01116 1-169 isoform P01116-2 G12V): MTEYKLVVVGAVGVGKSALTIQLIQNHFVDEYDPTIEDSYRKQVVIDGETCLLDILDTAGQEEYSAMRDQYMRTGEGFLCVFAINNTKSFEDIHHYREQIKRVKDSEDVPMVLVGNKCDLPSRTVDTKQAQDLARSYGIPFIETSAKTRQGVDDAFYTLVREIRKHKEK
T1 sequence (P01116 1-169 isoform P01116-2 G13D): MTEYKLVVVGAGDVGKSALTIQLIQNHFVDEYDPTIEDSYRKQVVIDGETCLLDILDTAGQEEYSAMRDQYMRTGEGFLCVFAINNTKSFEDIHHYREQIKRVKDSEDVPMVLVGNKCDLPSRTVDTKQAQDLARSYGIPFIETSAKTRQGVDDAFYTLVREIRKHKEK
T7 sequence (P01116 1-169 isoform P01116-2 G12S): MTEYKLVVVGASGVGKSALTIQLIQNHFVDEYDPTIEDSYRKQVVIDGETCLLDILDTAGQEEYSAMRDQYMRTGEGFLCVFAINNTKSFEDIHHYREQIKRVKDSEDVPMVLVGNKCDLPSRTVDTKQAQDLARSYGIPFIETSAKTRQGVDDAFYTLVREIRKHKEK

Row | SMILES | IC50 [1] [nM] | IC50 [2] [nM] | IC50 [3] [nM] | IC50 [4] [nM] | IC50 [5] [nM] | IC50 [6] [nM] | IC50 [7] [nM] | IC50 [8] [nM] | IC50 [9] [nM] | IC50 [10] [nM] | IC50 [11] [nM]
1 | C[C@H](Oc1nc(-c2noc(C3(C)CCCc4sc(N)c(C#N)c43)n2)cc(N2CCCC3(C2)NC(=O)NC3=O)n1)[C@@H]1CCCN1C (stereo partly drawn) [Example 2, 2-amino-4-(3-(6-(2,4-dioxo-1,3,7-triazaspiro[4.5]decan-7-yl)-2-((S)-1-((S)-1-methylpyrrolidin-2-yl)ethoxy)pyrimidin-4-yl)-1,2,4-oxadiazol-5-yl)-4-methyl-4,5,6,7-tetrahydrobenzo[b]thiophene-3-carbonitrile] | 37 | 14 | 18 | 6 | 4 | 54 | 41 | 49 | 36 | – | –
2 | C[C@H](Oc1nc(-c2cc(C3(C)CCCc4sc(N)c(C#N)c43)sn2)cc(N2CCC[C@@](C)(O)C2)n1)[C@@H]1CCCN1C (stereo partly drawn) [Example 7, 2-amino-4-(3-(6-((R)-3-hydroxy-3-methylpiperidin-1-yl)-2-((S)-1-((S)-1-methylpyrrolidin-2-yl)ethoxy)pyrimidin-4-yl)isothiazol-5-yl)-4-methyl-4,5,6,7-tetrahydrobenzo[b]thiophene-3-carbonitrile] | 128 | 129 | 127 | 46 | 23 | 174 | 158 | 132 | 170 | 5840 | 4470
3 | C[C@H](Oc1nc(-c2cc(C3(C)CCCc4sc(N)c(C#N)c43)sn2)cc(N2C[C@@H]3C[C@H](C2)[C@H](O)C3)n1)[C@@H]1CCCN1C (stereo partly drawn) [Example 8, 2-amino-4-(3-(6-((1R,5R,6R)-6-hydroxy-3-azabicyclo[3.2.1]octan-3-yl)-2-((S)-1-((S)-1-methylpyrrolidin-2-yl)ethoxy)pyrimidin-4-yl)isothiazol-5-yl)-4-methyl-4,5,6,7-tetrahydrobenzo[b]thiophene-3-carbonitrile] | 167 | 160 | 505 | 96 | 59 | 275 | 296 | 204 | 224 | 7400 | 3380
4 | C[C@H](Oc1nc(-c2cc(C3(C)CCCc4sc(N)c(C#N)c43)sn2)cc(N2CCCC3(C2)NC(=O)NC3=O)n1)[C@@H]1CCCN1C (stereo partly drawn) [Example 11, 2-amino-4-(3-(6-(2,4-dioxo-1,3,7-triazaspiro[4.5]decan-7-yl)-2-((S)-1-((S)-1-methylpyrrolidin-2-yl)ethoxy)pyrimidin-4-yl)isothiazol-5-yl)-4-methyl-4,5,6,7-tetrahydrobenzo[b]thiophene-3-carbonitrile] | 190 | 326 | 93 | 76 | 34 | 262 | 188 | 240 | 263 | – | –
5 | C[C@H](Oc1nc(-c2cc(C3(C)CCCc4sc(N)c(C#N)c43)sn2)cc(N2C[C@H]3CC[C@@H](C2)N3)n1)[C@@H]1CCCN1C (stereo partly drawn) [Example 9, 4-(3-(6-((1R,5S)-3,8-diazabicyclo[3.2.1]octan-3-yl)-2-((S)-1-((S)-1-methylpyrrolidin-2-yl)ethoxy)pyrimidin-4-yl)isothiazol-5-yl)-2-amino-4-methyl-4,5,6,7-tetrahydrobenzo[b]thiophene-3-carbonitrile] | 1320 | 566 | 36 | 1040 | 1340 | 3490 | 3420 | 3080 | 2290 | 3010 | ≥ 10000
6 | C[C@H](Oc1nc(-c2noc(C3(C)CCCc4sc(N)c(C#N)c43)n2)cc(N2CCCC3(CNS(=O)(=O)N3)C2)n1)[C@@H]1CCCN1C (stereo partly drawn) [Example 4, 2-amino-4-(3-(6-(2,2-dioxido-2-thia-1,3,7-triazaspiro[4.5]decan-7-yl)-2-((S)-1-((S)-1-methylpyrrolidin-2-yl)ethoxy)pyrimidin-4-yl)-1,2,4-oxadiazol-5-yl)-4-methyl-4,5,6,7-tetrahydrobenzo[b]thiophene-3-carbonitrile] | 24 | 10 | 6 | 5 | 4 | 26 | 23 | 29 | 26 | – | –
7 | C[C@H](Oc1nc(-c2noc(C3(C)CCCc4sc(N)c(C#N)c43)n2)cc(N2CCCn3nc(C(=O)N(C)C)cc3C2)n1)[C@@H]1CCCN1C (stereo partly drawn) [Example 6, 5-(6-(5-(2-amino-3-cyano-4-methyl-4,5,6,7-tetrahydrobenzo[b]thiophen-4-yl)-1,2,4-oxadiazol-3-yl)-2-((S)-1-((S)-1-methylpyrrolidin-2-yl)ethoxy)pyrimidin-4-yl)-N,N-dimethyl-5,6,7,8-tetrahydro-4H-pyrazolo[1,5-a][1,4]diazepine-2-carboxamide] | 1080 | 474 | 1830 | 746 | 669 | 1110 | 1520 | 1590 | 1110 | 7720 | > 10000
8 | C[C@H](Oc1nc(-c2cc(C3(C)CCCc4sc(N)c(C#N)c43)sn2)cc(N2CCCn3nc(C(=O)N(C)C)cc3C2)n1)[C@@H]1CCCN1C (stereo partly drawn) [Example 12, 5-(6-(5-(2-amino-3-cyano-4-methyl-4,5,6,7-tetrahydrobenzo[b]thiophen-4-yl)isothiazol-3-yl)-2-((S)-1-((S)-1-methylpyrrolidin-2-yl)ethoxy)pyrimidin-4-yl)-N,N-dimethyl-5,6,7,8-tetrahydro-4H-pyrazolo[1,5-a][1,4]diazepine-2-carboxamide] | 584 | 417 | 623 | 163 | 156 | 457 | 596 | 551 | 533 | – | –
9 | C[C@H](Oc1nc(-c2noc(C3(C)CCCc4sc(N)c(C#N)c43)n2)cc(N2C[C@@H]3C[C@H](C2)[C@H](O)C3)n1)[C@@H]1CCCN1C (stereo partly drawn) [Example 5, 2-amino-4-(3-(6-((1R,5R,6R)-6-hydroxy-3-azabicyclo[3.2.1]octan-3-yl)-2-((S)-1-((S)-1-methylpyrrolidin-2-yl)ethoxy)pyrimidin-4-yl)-1,2,4-oxadiazol-5-yl)-4-methyl-4,5,6,7-tetrahydrobenzo[b]thiophene-3-carbonitrile] | 269 | 69 | 413 | 62 | 38 | 313 | 265 | 250 | 233 | – | –
